From ChEMBL document CHEMBL3414554, “Novel 1-(2-aryl-2-adamantyl)piperazine derivatives with antiproliferative activity” (Eur J Med Chem, 2015) come the findings set out here.

Data set [1] has as its system HeLa. In words: Cytotoxicity against human HeLa cells after 24 hrs by MTT colorimetric assay. In kind it is functional, cell-based.
Data set [2] relates to MDA-MB-231. Kind of data set: Cytotoxicity against human MDA-MB-231 cells after 24 hrs by MTT colorimetric assay. It counts as functional, cell-based. Particulars: MDA-MB-231, 24 h.
The nature of data set [3]: Cytotoxicity against human MIAPaCa2 cells after 24 hrs by MTT colorimetric assay. It counts as functional, cell-based. Particulars: MIA PaCa-2, 24 h.
Data set [4] deals with NCI-H1975. Kind of data set: Cytotoxicity against human NCI-H1975 cells after 24 hrs by MTT colorimetric assay. In kind it is functional, cell-based. To be noted: NCI-H1975, 24 h.
Data set [5] relates to HUVEC. Kind of data set: Cytotoxicity against HUVEC cells after 48 hrs by SRB staining assay. In kind it is cell-based. Particulars: human.
Data set [6] deals with NHDF. In words: Cytotoxicity against NHDF cells after 48 hrs by SRB staining assay. In kind it is cell-based. To be noted: human.
The target of data set [7] is Sigma non-opioid intracellular receptor 1 (Homo sapiens, UniProt Q99720). In words: Displacement of [3H]-(+)-pentazocine from sigma-1 receptor in human Jurkat cell membrane by liquid scintillation spectrometry. In kind it is cell membranes.
Sequence of Sigma non-opioid intracellular receptor 1 (Q99720 whole entry): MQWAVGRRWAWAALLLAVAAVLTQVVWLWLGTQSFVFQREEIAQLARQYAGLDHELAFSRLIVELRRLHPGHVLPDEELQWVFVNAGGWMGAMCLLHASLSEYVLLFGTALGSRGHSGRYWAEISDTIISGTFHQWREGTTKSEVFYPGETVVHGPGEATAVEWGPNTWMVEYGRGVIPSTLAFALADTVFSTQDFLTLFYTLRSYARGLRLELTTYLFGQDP
The nature of data set [8]: Displacement of [3H]-DTG from sigma-2 receptor in rat cerebral cortex membranes in presence of (+)-pentazocine by liquid scintillation spectrometry. In kind it is cell membranes, Membrane.
In data set [9] the test system is Jurkat. Kind of data set: Selectivity ratio of IC50 for sigma-2 receptor in rat cerebral cortex membranes to IC50 for sigma-1 receptor in human Jurkat cell membrane. It counts as cell-based.
A short description of data set [10]: Displacement of [3H]BTX-B from neuronal Na+ channel in male Sprague-Dawley rat brain synaptosomal membrane vesicles by liquid scintillation spectrometry. It counts as tissue-based.

Molecules are shown by their SMILES.

Regarding `CN1CCN(C2(c3ccc(F)cc3)C3CC4CC(C3)CC2C4)CC1` (centres undefined), the 50% inhibitory concentration (IC50) in data set [1] amounted to 15.3 µM; in data set [2], 15.7 µM; in data set [3] it was 16.6 µM; in [4], 14.6 µM.

Regarding `CCOC(=O)N1CCN(C2(c3ccc(F)cc3)C3CC4CC(C3)CC2C4)CC1` (centres undefined), the IC50 in data set [1] was 14.5 µM; in [2], 21 µM; in data set [3] it was 18.5 µM; in [4] it was 17.5 µM.

As to `O=C(N1CCN(C2(c3ccccc3)C3CC4CC(C3)CC2C4)CC1)n1ccnc1` (centres undefined), the IC50 stood at 12.2 µM in data set [1], 13.5 µM in data set [2], 13.5 µM in [3] and 10.5 µM in data set [4]. The LC50 in data set [5] is > 100 µM; in [6], 98.16 µM.

Turning to `CCOC(=O)N1CCN(C2(c3ccccc3)C3CC4CC(C3)CC2C4)CC1` (centres undefined), the IC50 in data set [1] turned out to be 23 µM; in data set [2] it was 28 µM; in data set [3], 25.4 µM; in data set [4], 24.2 µM. The LC50 in data set [5] was > 100 µM; in [6], 100 µM.

As for `CN1CCN(C2(c3ccccc3)C3CC4CC(C3)CC2C4)CC1` (centres undefined), the IC50 in data set [1] amounted to 17.4 µM; in data set [2], 17.4 µM; in [3], 19.5 µM; in data set [4] it was 18.7 µM.

For the compound `Fc1ccc(C2(N3CCNCC3)C3CC4CC(C3)CC2C4)cc1.O=C(O)/C=C\C(=O)O` (centres undefined), the IC50 in data set [1] was 12.9 µM; in data set [2] it was 14.6 µM; in data set [3], 11.7 µM; in [4], 12.8 µM. Moreover, the median lethal concentration (LC50) in [5] is > 100 µM; in data set [6], 93.66 µM.

For `O=C(CN1CCCCC1)N1CCN(C2(c3ccccc3)C3CC4CC(C3)CC2C4)CC1` (centres undefined), the IC50 was 12.4 µM in [1]; 11.4 µM in data set [2]; 12.2 µM in data set [3]; 16.3 µM in [4]; 0.135 µM in [7]; 3.34 µM in [8]. The IC50 in [10] was 2.44 µM. Besides, the LC50 in data set [5] amounted to 60.35 µM; in data set [6], 58.43 µM. For the same compound, the Ratio IC50 in [9] was 24.7.

In the case of `Nc1ccn([C@@H]2O[C@H](CO)[C@@H](O)C2(F)F)c(=O)n1` [GEMCITABINE], the IC50 in data set [1] was found to be 3.3 µM; in [2] it was 0.19 µM; in data set [3] it was 0.6 µM.

Consider `O=C(c1ccc(Cl)s1)N1CCN(C2(c3ccccc3)C3CC4CC(C3)CC2C4)CC1` (centres undefined), for which the IC50 in [1] was determined as 12.8 µM; in data set [2], 11.4 µM; in data set [3], 12.4 µM; in data set [4] it was 12.7 µM.

`O=C(CN1CCCCC1)N1CCN(C2(c3ccc(F)cc3)C3CC4CC(C3)CC2C4)CC1` (centres undefined): the IC50 in data set [1] stood at 8.4 µM; in data set [2], 6.8 µM; in data set [3], 14.6 µM; in data set [4] it was 12.7 µM. In addition, the values for the LC50 in [5] and in [6] were 88.78 µM and 85.26 µM, respectively.

In the case of `O=C(O)/C=C\C(=O)O.c1ccc(C2(N3CCNCC3)C3CC4CC(C3)CC2C4)cc1` (centres undefined), the half-inhibitory concentration (IC50) in [1] came to 9.2 µM; in [2] it was 8.4 µM; in data set [3], 12.3 µM; in [4], 17.3 µM. For the same compound, the values for the LC50 in [5] and in [6] were 95.45 µM and 90 µM, respectively.
